# Assay results from patent US7504481B2, “TRP channel family member, LTRPC3 polypeptides” (Bristol-Meyers Squibb Company, priority 2001, dated 2009).
# Experiments:
# HEK 293 cells = experiment: Depletion of intracellular Ca2+ stores in LTRPC3-HA- and vector-transfected HEK 293 cells (FLIPR); type: cell-based; details: no external Ca^2+
# LTRPC3 [1] = molecular target: T1, LTRPC3 (Homo sapiens, UniProt Q9HCF6, R1695Q); experiment: FLIPR Fluo-4 Ca2+ entry in LTRPC3-transfected HEK 293 cells; type: cell-based; details: for effect on LTRPC3 mediated Ca^2+ currents / entry (in words): 100 μM for 10 min, 1 mM Ca^2+ solution, then 10 mM Ca^2+; for block of LTRPC3 Ca^2+ currents: pre-treatment with 100 μM, 1 mM Ca^2+ present, stimulated by adding 10 mM Ca^2+ (FIG. 19C)
# T1 construct: the complete open reading frame of LTRPC3 with a C-terminal HA tag was transiently transfected into HEK 293 cells; expressed in transfected cells; host or cells: HEK 293 cells, transient transfection with pcDNA3.1/Hygro-LTRPC3-HA
# Description: […] (A), or 50 μM carbachol (B) was first added to LTRPC3 expressing HEK 293 cells in the absence of external Ca^2+. After 9 minutes, 2 mM Ca^2+ solution was added to the cell medium at the indicated times.Currents for vector transfected HEK 293 cells, and LTRPC3 expressing HEK 293 cells are labeled accordingly. […] Cells loaded with Fluo-4 were incubated in 1 mM Ca^2+ solution and treated with 100 μM of La^3+ (“w/La^3+”), Gd^3+ (“w/Gd^3+”) or without blockers (“w/o blocker”) for 10 min prior to the addition of 10 mM Ca^2+ to the cell medium as indicated. Curves represent averages of three independent experiments, each involving at least 8 wells per condition. Physiometric methods were performed as described in Example 8 herein.
# (§1) Panels A, C and E show results obtained for vector-transfected cells, while Panels B, D and F show results obtained for TRPM3-transfected cells. […] Cells loaded with Fluo-4 were incubated in 1 mM Ca^2+ solution and treated with 100 μM of Gd^3+ (red) or without blockers (black) for 10 min prior to the addition of 10 mM Ca^2+ to the bath solution as indicated. […] Cells loaded with Fluo-4 were incubated in a nominally Ca^2+-free media and treated without blockers (black) or with 100 μM of Gd^3+ (red) for 10 min prior to the addition of 2 μM TG (Panels C and D, first arrow) or 50 μM CCh (Panels E and F, first arrow), Ca^2+ entry was stimulated by the bath addition of […] (second arrow). Representative traces from one of three independent experiments are shown; each trace is the mean of 12 wells per condition. Physiometric methods were performed as described in Example 10 herein.
# (§2) Moreover, physiometric studies have shown that LTRPC3 is a functional Ca^2+ permeable channel (see FIGS. 18 and 19, and Example 7). LTRPC3 function was assessed using a Fluorometric Imaging Plate Reader (FLIPR™) that measures real-time intracellular fluorescence changes. Cells transiently transfected with vector or LTRPC3-HA were loaded with the cytoplasmic Ca^2+ indicator Fluro-4 in a 1 mM Ca^2+ solution. […] The non-transfected cells were indistinguishable from the vector-transfected cells (data not shown). Therefore, LTRPC3 is a constitutively active channel capable of mediating Ca^2+ influx.
# The lanthamides, gadolinium (Gd^3+) and lanthanum (La^3+), are noneselective Ca^2+-permeable channel blockers, often used as part of the characterization of overexpressed TRP channels. […] In the presence of 1 mM Ca^2+ in which endogenous SOCs is minimally activated (FIG. 18A), pre-treatment with 100 μM of La^3+and Gd^3+blocked LTRPC3 Ca^2+ currents, stimulated by adding 10 mM Ca^2+, by 67 and 39%, respectively.
# Additional experiments were performed to further confirm the Ca^2+ store-depleted activation of LTRPC3 using Gd^3+. The effects of 100 μM Gd^3+ on Ca^2+ permeability were tested in vector- and LTRPC3-transfected cells. […] In contrast, 100 μM Gd^3+ inhibited Ca^2+ entry, induced by adding 10 mM Ca^2+, by 53% in LTRPC3-transfected cells (see FIG. 22B). Gd^3+ reduced fluorescence units in vector-transfected cells from 1470±140 to −58±8 and in LTRPC3-transfected cells from 6000±322 to 2080±199 (n=12). Fluorescence values were measured 150 seconds after adding 10 mM Ca^2+ and percent blockade was calculated as 1 minus FLTRPC3−FVector in the presence of Gd^3+ divided by FLTRPC3−FVector without blocker. The effects of Gd^3+ on LTRPC3-mediated Ca^2+ entry, induced by 10 mM Ca^2+, in the presence of thapsigargin or carbachol was also examined. Cells were incubated in nominally Ca^2+-free medium for thapsigargin and carbachol experiments. Gd^3+ inhibited Ca^2+ entry by 51% after depletion of intracellular stores with thapsigargin (see FIG. 22B). Gd^3+ reduced peak fluorescence after 10 mM Ca^2+ addition in vector-transfected cells from 26444±2410 to 1316±60 and in LTRPC3-transfected cells from 37676±2425 to 6783±250 (see FIGS. 22C and D, respectively; n=12). […]
# [2] = system: endogenous Ca^2+ entry pathway in HEK 293 cells; experiment: FLIPR Fluo-4 Ca2+ entry in vector-transfected HEK 293 cells (endogenous pathway); type: cell-based; details: 100 μM Gd^3+
# Description: as §1, §2
# To further address the mechanism of LTRPC3-mediated Ca^2+ entry, similar Ca^2+ addition experiments were performed on transfected cells incubated (˜30 min) in a nominally Ca^2+-free solution. Previous studies have shown that lowering extracellular Ca^2+ concentration below physiological levels can deplete intracellular Ca^2+ stores in many cell types including HEK 293 (EMBO J. 17, 4274-4282, (1998)). […]
# Additional experiments were performed to further confirm the Ca^2+ store-depleted activation of LTRPC3 using Gd^3+. […] Gd^3+ reduced fluorescence units in vector-transfected cells from 1470±140 to −58±8 and in LTRPC3-transfected cells from 6000±322 to 2080±199 (n=12). Fluorescence values were measured 150 seconds after adding 10 mM Ca^2+ and percent blockade was calculated as 1 minus FLTRPC3−FVector in the presence of Gd^3+ divided by FLTRPC3−FVector without blocker. […] Gd^3+ reduced peak fluorescence after 10 mM Ca^2+ addition in vector-transfected cells from 26444±2410 to 1316±60 and in LTRPC3-transfected cells from 37676±2425 to 6783±250 (see FIGS. 22C and D, respectively; n=12). […] Gd^3+ reduced peak Ca^2+ fluorescence in vector-transfected cells from 9327±466 to 453±15 and in LTRPC3-transfected cells from 14747±988 to 1975±79 (see FIGS. 22E and F, respectively; n=12).
# LTRPC3 [3] = molecular target: T1, LTRPC3; experiment: FLIPR Fluo-4 Ca2+ entry in LTRPC3-transfected HEK 293 cells; type: cell-based; details: 100 μM Gd^3+, nominally Ca^2+-free medium
# [4] = picogram quantities to the female vomeronasal organ; female recipients; cited from earlier work
# [5] = system: nigral dopaminergic neurons; details: gel foam implants in the striatum; cited from earlier work
# T1 sequence (Q9HCF6 with tags, fused parts or gaps isoform Q9HCF6-2 R1670Q limits assumed): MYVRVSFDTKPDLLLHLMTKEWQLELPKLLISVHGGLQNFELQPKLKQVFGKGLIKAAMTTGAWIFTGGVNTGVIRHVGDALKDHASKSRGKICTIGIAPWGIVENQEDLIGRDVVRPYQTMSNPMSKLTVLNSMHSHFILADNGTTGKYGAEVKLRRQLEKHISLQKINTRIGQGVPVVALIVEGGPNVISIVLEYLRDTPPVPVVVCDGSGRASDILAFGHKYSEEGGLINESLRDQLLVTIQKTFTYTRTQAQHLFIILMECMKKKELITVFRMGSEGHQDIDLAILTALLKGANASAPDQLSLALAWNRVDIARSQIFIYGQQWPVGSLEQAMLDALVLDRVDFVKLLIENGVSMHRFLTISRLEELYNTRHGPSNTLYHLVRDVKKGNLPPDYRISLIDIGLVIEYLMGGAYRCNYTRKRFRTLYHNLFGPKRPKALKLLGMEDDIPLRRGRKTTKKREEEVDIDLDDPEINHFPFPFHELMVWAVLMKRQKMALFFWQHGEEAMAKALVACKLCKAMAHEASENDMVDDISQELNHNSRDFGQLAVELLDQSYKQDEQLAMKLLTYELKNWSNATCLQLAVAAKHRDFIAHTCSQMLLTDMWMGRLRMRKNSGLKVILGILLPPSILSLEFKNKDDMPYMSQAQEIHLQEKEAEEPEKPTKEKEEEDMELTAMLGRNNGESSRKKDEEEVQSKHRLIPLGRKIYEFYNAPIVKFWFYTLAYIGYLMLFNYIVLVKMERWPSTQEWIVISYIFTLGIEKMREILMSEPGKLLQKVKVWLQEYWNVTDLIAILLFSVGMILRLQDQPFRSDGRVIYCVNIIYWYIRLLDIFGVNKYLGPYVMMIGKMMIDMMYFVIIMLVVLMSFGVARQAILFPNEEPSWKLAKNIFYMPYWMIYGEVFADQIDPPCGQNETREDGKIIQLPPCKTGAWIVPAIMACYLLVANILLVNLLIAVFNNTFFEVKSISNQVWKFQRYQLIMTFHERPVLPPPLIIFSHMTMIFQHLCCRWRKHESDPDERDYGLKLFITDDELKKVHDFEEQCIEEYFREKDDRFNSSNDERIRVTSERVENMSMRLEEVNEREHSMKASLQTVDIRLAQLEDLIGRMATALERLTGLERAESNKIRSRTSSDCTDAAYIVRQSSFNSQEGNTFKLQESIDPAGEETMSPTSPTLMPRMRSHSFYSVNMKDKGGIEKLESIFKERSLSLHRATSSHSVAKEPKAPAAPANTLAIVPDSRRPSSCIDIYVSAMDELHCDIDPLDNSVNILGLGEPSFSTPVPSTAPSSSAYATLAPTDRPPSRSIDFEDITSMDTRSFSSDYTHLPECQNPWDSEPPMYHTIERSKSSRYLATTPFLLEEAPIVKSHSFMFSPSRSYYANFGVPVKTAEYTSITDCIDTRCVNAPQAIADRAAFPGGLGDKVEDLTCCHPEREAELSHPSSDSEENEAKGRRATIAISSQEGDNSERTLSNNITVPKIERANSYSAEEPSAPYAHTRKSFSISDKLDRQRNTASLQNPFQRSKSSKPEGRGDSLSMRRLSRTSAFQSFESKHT
compound,measurement,setting,value
"C[N+](C)(C)CCOC(N)=O [CCh, Carbachol]",intracellular Ca^2+ response (in words),"HEK 293 cells; 50 μM CCh, LTRPC3- and vector-transfected cells",transient and rapid intracellular Ca^2+ increase
"[Gd+3] [Gd^3+, gadolinium]",fluorescence units in LTRPC3-transfected cells in the presence of Gd^3+,"LTRPC3 [1]; 100 μM Gd^3+, 1 mM Ca^2+, 150 seconds after adding 10 mM Ca^2+, n=12",2080±199 fluorescence units
same,inhibition of Ca^2+ entry in LTRPC3-transfected cells (percent blockade),"LTRPC3 [1]; 100 μM Gd^3+, cells in 1 mM Ca^2+, entry induced by adding 10 mM Ca^2+, 150 seconds, vector signal subtracted",53%
same,effect on LTRPC3 mediated Ca^2+ currents / entry (in words),LTRPC3 [1],partially inhibited
same,block of LTRPC3 Ca^2+ currents,LTRPC3 [1],39%
same,fluorescence units in vector-transfected cells in the presence of Gd^3+,"[2]; 1 mM Ca^2+, 150 seconds after adding 10 mM Ca^2+, n=12",−58±8 fluorescence units
same,effect on minimal Ca^2+ influx in vector-transfected cells (in words),"[2]; 1 mM Ca^2+, addition of 10 mM Ca^2+",strongly inhibited
same,"peak Ca^2+ fluorescence in vector-transfected cells, carbachol","[2]; store depletion with carbachol, nominally Ca^2+-free medium, n=12",453±15
same,"peak fluorescence after 10 mM Ca^2+ addition in vector-transfected cells, thapsigargin","[2]; store depletion with thapsigargin, nominally Ca^2+-free medium, n=12",1316±60
same,inhibition of Ca^2+ entry after depletion of intracellular stores with carbachol,LTRPC3 [3]; 10 mM Ca^2+ addition,72%
same,inhibition of Ca^2+ entry after depletion of intracellular stores with thapsigargin,LTRPC3 [3]; 10 mM Ca^2+ addition,51%
same,"peak Ca^2+ fluorescence in LTRPC3-transfected cells, carbachol","LTRPC3 [3]; store depletion with carbachol, n=12",1975±79
same,"peak fluorescence after 10 mM Ca^2+ addition in LTRPC3-transfected cells, thapsigargin","LTRPC3 [3]; store depletion with thapsigargin, n=12",6783±250
"[La+3] [La^3+, lanthanum]",effect on LTRPC3 mediated Ca^2+ currents / entry (in words),LTRPC3 [1],inhibited
same,block of LTRPC3 Ca^2+ currents,LTRPC3 [1],67%
C[C@@]12C=CC[C@H]1[C@@H]1CCC3=CC(=O)CC[C@]3(C)[C@H]1CC2 [androstadienone],"nervousness, tension and other negative feelings",[4],significant reduction
C/C=C(/C)C(=O)O[C@H]1C(C)=C2[C@H]([C@@H]1OC(=O)CCCCCCC)[C@@](C)(OC(C)=O)C[C@H](OC(=O)CCC)[C@@]1(O)[C@H]2OC(=O)[C@@]1(C)O [thapsigargin],depletion of Ca^2+ stores (in words),"HEK 293 cells; 2 μM thapsigargin, LTRPC3-HA- and vector-transfected cells",equivalently depleted
"FGF-2: FGF-2 (basic FGF), fibroblast growth factor",protection of nigral dopaminergic neurons from the toxicity associated with MPTP exposure,[5],near complete protection
